Each structure is given as a SMILES string.

The text below walks through data of patent publication US20140349970A1 (ABBVIE INC., priority 2009, published 2014).

In one experiment the target is T1, Syk catalytic domain (aa 356-635 with a C-terminal His-tag) (Homo sapiens, UniProt P43405).
T1 construct: His-tag (C); made in house
Kind of experiment: In vitro Syk kinase activity measured by trFRET, Syk catalytic domain. The format is biochemical.
Settings: not given
The method, then: In Vitro Syk Kinase Activity Measured by Time-Resolved Fluorescence Resonance Energy Transfer (trFRET)
0.14 nM purified Syk catalytic domain (aa 356-635 with a C-terminal His-tag purified in-house by immobilized metal ion affinity chromatography) was mixed with 0.2 μM peptide substrate (biotin-TYR1, Sequence: Biotin-(Ahx)-GAEEEIYAAFFA-COOH) at varying inhibitor concentrations in reaction buffer: 50 mM MOPSO pH 6.5, 10 mM MgCl2, 2 mM MnCl2, 2.5 mM DTT, 0.01% BSA, 0.1 mM Na3VO4 and 0.001 mM ATP. After about 60 min incubation at rt, the reaction was quenched by addition of EDTA (final concentration: 100 mM) and developed by addition of revelation reagents (final approximate concentrations: 30 mM HEPES pH 7.0, 0.06% BSA, 0.006% Tween-20, 0.24 M KF, 80 ng/mL PT66K (europium labeled anti-phosphotyrosine antibody cat #61T66KLB Cisbio, Bedford, Mass.) and 0.6 μg/mL SAXL (Phycolink streptavidin-allophycocyanin acceptor, cat #PJ255, Prozyme, San Leandro, Calif.). The developed reaction was incubated in the dark either at about 4° C. for about 14 h or for about 60 min at rt, then read via a time-resolved fluorescence detector (Rubystar, BMG) using a 337 nm laser for excitation and monitoring emission wavelengths at 665 nm. Within the linear range of the assay, the observed signal at 665 nm was directly related to phosphorylated product and can be used to calculate the IC50 values.
MOPSO buffer contains: 50 mM MOPSO pH 6.5, 10 mM MgCl2, 2 mM MnCl2, 2.5 mM DTT, 0.01% BSA, and 0.1 mM Na3VO4 HEPES buffer contains: 50 mM HEPES pH 7.1, 2.5 mM DTT, 10 mM MgCl2, 2 mM MnCl2, 0.01% BSA, and 0.1 mM Na3VO4 MOPS buffer contains: 20 mM MOPS pH 7.2, 10 mM MgCl2, 5 mM EGTA, 5 mM Beta-phosphoglycerol, 1 mM Na3VO4, 0.01% Triton-X-100 and 1 mM DTT
Biotin-TYR1-peptide sequence: Biotin-(Ahx)-GAEEEIYAAFFA-COOH Biotin-TYR2-peptide sequence: Biotin-(Ahx)-AEEEYFFLFA-amide KinEASE 51 peptides were purchased from Cisbio (cat #62ST0PEB, Bedford, Mass.)
PT66K was purchased from Cisbio (cat #61T66KLB, Bedford, Mass.) EuSTK was purchased from Cisbio (cat #62ST0PEB, Bedford, Mass.) SAXL was purchased from Prozyme (cat #PJ25S, San Leandro, Calif.) Human T-Blasts IL-2 pSTAT5 Cellular Assay
In turn, `COc1ccc(-c2nc(C)n3c2cnc2[nH]ccc23)c(OC)c1` [AC.1.1] displayed an IC50 of 1 to 10 µM. The compound `COc1ccc(-c2nc(C)n3c2cnc2[nH]ccc23)c(CO)c1` [AC.1.2] had an IC50 of 1 to 10 µM. In turn, `Cc1nc(-c2ccc(CO)nc2)c2cnc3[nH]ccc3n12` [AC.1.3] returned an IC50 of 0.1 to 1 µM. On the same count and under the same terms, next, `CCCNC(=O)c1cccc(-c2nc(C)n3c2cnc2[nH]ccc23)c1` [AC.1.4]: 0.1 to 1 µM; `Cc1nc(-c2cccc3nccnc23)c2cnc3[nH]ccc3n12` [AC.1.5]: over 10 µM; `Cc1nc(-c2ccc(S(C)(=O)=O)cc2)c2cnc3[nH]ccc3n12` [AC.1.6]: 0.1 to 1 µM. In the case of `Cc1nc(-c2ccc(C(C)(C)CO)cc2)c2cnc3[nH]ccc3n12` [AC.1.7], the IC50 was under 0.1 µM. The same measure, in the same setting: as for `CNS(=O)(=O)c1ccc(-c2nc(C)n3c2cnc2[nH]ccc23)cc1` [AC.1.9], the figure is under 0.1 µM. Still for that read-out and setting: as for `Cc1nc(-c2ccc(S(=O)(=O)N(C)C)cc2)c2cnc3[nH]ccc3n12` [AC.1.10], the figure is 0.1 to 1 µM; as for `Cc1nc(-c2ccc(S(=O)(=O)C(C)C)cc2)c2cnc3[nH]ccc3n12` [AC.1.11], 0.1 to 1 µM. The same measure, in the same setting: next, `Cc1nc(-c2ccc(S(=O)(=O)N3CCN(C)CC3)cc2)c2cnc3[nH]ccc3n12` [AC.1.12]: 1 to 10 µM. Compound `Cc1nc(C2=CCN(C(=O)OC(C)(C)C)CC2)c2cnc3[nH]ccc3n12` [AC.1.13] showed an IC50 of 1 to 10 µM. Still for that read-out and setting: as for `Cc1nc(-c2ccc(OCCN3CCOCC3)cc2)c2cnc3[nH]ccc3n12` [AC.1.14], the figure is under 0.1 µM; as for `COCCOc1ccc(-c2nc(C)n3c2cnc2[nH]ccc23)cc1` [AC.1.15], 0.1 to 1 µM; as for `Cc1nc(-c2ccc(OCC(=O)O)cc2)c2cnc3[nH]ccc3n12` [AC.1.16], 0.1 to 1 µM. With `COc1ccc(-c2nc(C)n3c2cnc2[nH]ccc23)c(C)c1` [AC.1.17], the concentration for half-maximal inhibition (IC50) was over 10 µM. Compound `COc1ccc(-c2nc(C)n3c2cnc2[nH]ccc23)c(F)c1` [AC.1.18] registered an IC50 of 1 to 10 µM. `COc1ccc(-c2nc(C)n3c2cnc2[nH]ccc23)c(Cl)c1` [AC.1.19] registered an IC50 of 1 to 10 µM. Still for that read-out and setting: next, `Cc1nc(-c2ccc(C(C)(C)O)c(F)c2)c2cnc3[nH]ccc3n12` [AC.1.20]: under 0.1 µM; `COc1ccc(-c2nc(C)n3c2cnc2[nH]ccc23)cn1` [AC.1.21]: 0.1 to 1 µM. On the same count and under the same terms, as for `Cc1nc(-c2cccnc2)c2cnc3[nH]ccc3n12` [AC.1.22], the figure is 1 to 10 µM; as for `COc1ncc(-c2nc(C)n3c2cnc2[nH]ccc23)cn1` [AC.1.23], 1 to 10 µM. `Cc1nc(-c2ccc(C(C)(C)O)nc2)c2cnc3[nH]ccc3n12` [AC.1.24] registered an IC50 of 0.1 to 1 µM. `COc1c(C)cc(-c2nc(C)n3c2cnc2[nH]ccc23)cc1C` [AC.1.25]: the IC50 was under 0.1 µM.

Turning to `Cc1nc(-c2ccc3c(c2)CCO3)c2cnc3[nH]ccc3n12` [AC.1.26], the IC50 was 0.1 to 1 µM. Still for that read-out and setting: next, `Cc1cc(-c2nc(C)n3c2cnc2[nH]ccc23)ccc1N1CCOCC1` [AC.1.27]: under 0.1 µM.

The same experiment, now with this note: Syk catalytic domain (aa 356-635), trFRET, 0.001 mM ATP.
For `CC(=O)N[C@@H]1C[C@@H](c2nc(-c3ccc(C(C)(C)O)cc3)c3cnc4[nH]ccc4n23)N(S(=O)(=O)C2CC2)C1` (racemic) [N.1.65], the half-maximal inhibitory concentration (IC50) was 1 to 10 µM.

Compound `CC(C)(O)c1ccc(-c2nc([C@@H]3CCCC[C@H]3CN)n3c2cnc2[nH]ccc23)cc1` (racemic) [N.1.78] had an IC50 of 0.1 to 1 µM. Compound `COc1ccc2c(c1)c(-c1cc3c(ncc4cnc([C@@H]5CC[C@H](N)C5)n43)[nH]1)cn2C` (relative stereo) [T.1.1, cis-3-(7-(5-Methoxy-1-methyl-1H-indol-3-yl)-6H-imidazo[1,5-a]pyrrolo[2,3-e]pyrazin-1-yl)cyclopentanamine diacetate] returned an IC50 of under 0.1 µM. On the same count and under the same terms, as for `CS(=O)(=O)c1cccc(-c2cc3c(ncc4cnc([C@@H]5CC[C@H](N)C5)n43)[nH]2)c1` (relative stereo) [T.1.1.5, (cis)-3-(7-(3-(Methylsulfonyl)phenyl)-6H-imidazo[1,5-a]pyrrolo[2,3-e]pyrazin-1-yl)cyclopentanamine], the figure is 0.1 to 1 µM.

A word on the IC50: it is the point on the concentration scale where inhibition reaches its midpoint. Higher therefore signals a need for much substance.
